The values that follow come from US11116713B2, “Oral care compositions and methods” (priority 2018, dated 2021).

In this assay the test system is Streptococcus mutans. The assay can be described thus: Killing efficacy against Streptococcus mutans in vitro (cfu count after treatment). In kind it is cell-based. To be noted: inoculum 2.71×10^4 cfu/ml, FIG. 1. The procedure:
Because the primary bacterium responsible for dental caries (cavities) is Streptococcus mutans, the killing efficacy of agmatine and EGCG, alone and in combination, was determined against Streptococcus mutans. Killing efficacy was measured in vitro using Streptococcus mutans cells grown in brain heart infusion (BHI) plates for at least 24-48 hours at 37° C. Each experiment was initiated by collecting an individual colony from the BHI plate and growning the colony overnight at 37° C. and 5% CO2 in BHI liquid media. Streptococcus mutans cells were then passaged 2 times in chemically defined media for Streptococcus mutans and grown overnight at 37° C. and 5% CO2. The absorbance at A600 of the culture was measured to determine the bacterial cell concentration of the inoculum. Once the desired bacterial concentration was reached, Streptococcus mutans inoculum was plated on cell culture plates previously prepared with a range of concentrations of EGCG alone, agmatine alone, or EGCG and agmatine in combination. The plates streaked with inoculum were incubated for at least 24 hours at 37° C. and 5% CO2. After incubation, the cells were transferred to sterile tubes, plated on BHI plate using an Autoplate 4000, and incubated for at least 36 hours at 37° C. Colonies were counted and colony forming units (cfu) were calculated as recommended by Autoplate 4000 guide. […]

With `O=C(O[C@@H]1Cc2c(O)cc(O)cc2O[C@@H]1c1cc(O)c(O)c(O)c1)c1cc(O)c(O)c(O)c1` [EGCG, epigallocatechin gallate], the “bacterial concentration of Streptococcus mutans following treatment” value (50 μg/ml EGCG alone) is given as 6.00×10^1 cfu/ml. Regarding `NCCCCN=C(N)N` [agmatine, (4-aminobutyl)guanidine], for the setting “7.5 mg/ml agmatine alone”, the “bacterial concentration of Streptococcus mutans following treatment” value is reported as 6.50×10^1 cfu/ml.
